Reference: patent US20080153760A1, “Haircare Use Of C-Glycoside Derivatives” (L'OREAL, priority 2005, published 2008)

Test: Degree of premature breaking of hair, tensile test
Conditions: parameter R; natural African hair immersed three days at 40° C. in composition of 5% by weight compound and 95% water, no final rinsing; hairs 30 mm, pulled at 10 mm/minute; untreated control 0.27
Protocol: The hair used for the following tests was regulated beforehand in a glove box at 25° C. and 45% relative humidity for about 24 hours. This was natural curly African hair.
The four abovementioned compounds were respectively formulated in the form of a composition comprising 5% by weight of the compound under consideration and 95% by weight of water relative to the total weight of the composition.
Four batches of natural African hair were treated, respectively, with each of the four compositions according to the following protocol: the hair is immersed for three days at 40° C. in the composition under consideration, without final rinsing, and its degree of premature breaking is then assessed by comparison with that of a batch of untreated natural control hair.
The degree of premature breaking of the hair is characterized by the following parameter R:
R=1−(number of hairs showing breakage under tension in the hardening zone/N),
N being the total number of hairs tested.
The corresponding mechanical tests are performed using a Zwicko tensile testing machine on hairs 30 mm long. The hairs were pulled at a speed of 10 mm/minute.

In order of rising “Degree of premature breaking” value:
1. CC(=O)C[C@@H]1O[C@H](CO)[C@@H](O[C@@H]2O[C@H](CO)[C@H](O)[C@H](O)[C@H]2O)[C@H](O)[C@H]1O [Compound 3, C-β-D-Lactopyranoside-n-propan-2-one]  0.13
2. CC(O)C[C@@H]1OC[C@@H](O)[C@H](O)[C@H]1O (stereo partly drawn) [Compound 1, C-β-D-xylopyranoside-2-hydroxypropane]  0.17
3. CC(=O)C[C@@H]1OC[C@@H](O)[C@H](O)[C@H]1O [Compound 2, C-β-D-Xylopyranoside-n-propan-2-one]  0.20
4. CC(=O)C[C@@H]1O[C@H](CO)[C@@H](O)[C@H](O)[C@H]1O [Compound 4, C-β-D-glucopyranoside-n-propan-2-one]  0.23
